This is an account of results in patent US11952379B2, “Small molecule modulators of PAR2 and uses thereof” (Arizona Board of Regents on Behalf of the University of …, priority 2018, dated 2024).

The target of assay [1] is T1, PAR2 (Homo sapiens, UniProt P55085).
T1 sequence (P55085 26-397): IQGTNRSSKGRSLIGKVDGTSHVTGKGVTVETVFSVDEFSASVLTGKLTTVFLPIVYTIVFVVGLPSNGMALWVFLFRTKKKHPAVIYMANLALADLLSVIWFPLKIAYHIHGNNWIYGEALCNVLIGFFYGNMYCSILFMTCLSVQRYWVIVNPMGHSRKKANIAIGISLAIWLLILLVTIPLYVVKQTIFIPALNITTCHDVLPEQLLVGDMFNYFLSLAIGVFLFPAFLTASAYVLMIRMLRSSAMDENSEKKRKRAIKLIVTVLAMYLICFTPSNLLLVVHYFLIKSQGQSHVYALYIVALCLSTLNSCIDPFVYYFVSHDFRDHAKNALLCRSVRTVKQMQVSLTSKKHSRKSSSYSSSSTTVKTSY
Kind of assay: Inhibition of PAR2 response induced by 2at-LIGRL-NH2 (FIG. 1). The class given is cell-based. To be noted: antagonist against agonist 2at-LIGR1-NH2.

The test system of assay [2] is PAR2-dependent Ca^2+ signaling. Kind of assay: PAR2-dependent Ca2+ signaling. In kind it is cell-based. As for the experimental part: Addition of 1.75 μM of the potent PAR2 agonist 2at-LIGRL-NH2 (C134) induced Ca^2+ signaling in 50% of the cells within the experiment.
Assay [3] addresses T2, PAR2 (Mus musculus, UniProt P55086).
T2 construct: from tissue; host or cells: live mice, hindpaw
T2 sequence (P55086 26-399): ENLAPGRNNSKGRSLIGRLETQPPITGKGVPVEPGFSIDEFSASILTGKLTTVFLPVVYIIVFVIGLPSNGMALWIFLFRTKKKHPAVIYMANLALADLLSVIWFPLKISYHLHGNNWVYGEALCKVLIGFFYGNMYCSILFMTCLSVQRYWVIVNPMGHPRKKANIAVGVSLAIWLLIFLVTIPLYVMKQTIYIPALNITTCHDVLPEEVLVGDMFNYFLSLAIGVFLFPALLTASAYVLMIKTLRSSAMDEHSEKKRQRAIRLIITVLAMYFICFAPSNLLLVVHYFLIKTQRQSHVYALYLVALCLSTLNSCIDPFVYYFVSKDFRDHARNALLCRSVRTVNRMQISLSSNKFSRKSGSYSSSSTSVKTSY
Kind of assay: Mechanical hypersensitivity / paw withdrawal response to PAR2 agonist 2AT injected into the hindpaw. The class given is in vivo. To be noted: mice. As for the experimental part: Experiments were conducted to test C781 in vivo in mice for its ability to block mechanical hypersensitivity (a pain measure) in response to a PAR2 agonist (2AT-LIGRL, also known as 2AT).
Animals were injected with 2at (black), 2at+C781(yellow), or C781 alone (green).
Animals were systemically treated with C781 or control and then local injected with 2at (black with control; yellow with C781) or with vehicle alone (green). […] This is important because previous PAR2 antagonists have not had systemic bioavailability and have only worked with very high doses via intravenous injection.

The test system of assay [4] is PAR2-dependent MAPK signaling. Kind of assay: PAR2-dependent MAPK signaling (MAPK phosphorylation). The class given is cell-based.
Assay [5] addresses T2, PAR2. Kind of assay: 2AT-evoked hyperalgesic priming in the hindpaw. The class given is in vivo. To be noted: given locally into the mouse hindpaw; FIG. 3.

Turning to `CC(C)CC(=O)N1C[C@H](NC(=O)c2csc(N)n2)C(=O)N2C1CN(CC1CCNCC1)C(=O)[C@@H]2CC(C)C` (stereo partly drawn) [C732], the “concentration at which the 2at-LIGR1-NH2-induced PAR2 response was fully limited / compound was effective” value on PAR2 [1] lay within 100 to 300 nM.
In the case of `CC(C)CC(=O)N[C@H]1CN(C(=O)c2ccco2)C2CN(CC3CCNCC3)C(=O)[C@H](CC(C)C)N2C1=O` (stereo partly drawn) [C781], in assay [2] (administered with 1.75 μM 2at-LIGRL-NH2 (C134), FIG. 6), the “effect on PAR2-dependent Ca2+ signaling” value was “no significant effect”. Besides, the “effect on 2at-induced paw withdrawal response (pain)” value at PAR2 [3] (C781 given intraperitoneally 30 min prior to 2AT injection into the hindpaw, FIG. 4) is recorded as “reduced the 2at response”; at PAR2 [3] (C781 locally administered into hindpaw together with 2at, FIG. 2) it was “reduced the 2at response”. Also, the “effect on paw withdrawal response of compound alone” value at PAR2 [3] (C781 injected locally with vehicle alone (no 2at), FIG. 2) is “had no effect”. The “effect on paw withdrawal response after vehicle injection” value at PAR2 [3] (systemically administered C781, local vehicle alone, FIG. 4) is given as “had no effect on vehicle treatment”. Besides, the “concentration at which the 2at-LIGR1-NH2-induced PAR2 response was fully limited / compound was effective” value on PAR2 [1] lay within 30 to 300 nM. In addition, in assay [4] (response induced by 600 nM 2at-LIGRL-NH2 (100% response), 95% CI: 3.4 μM-21 μM, FIG. 5, read-out: IC50 for reduction of PAR2-dependent MAPK phosphorylation), the IC50 came to 8.5 µM. For the same compound, on PAR2 [5], the “effect on 2AT-evoked hyperalgesic priming” value is “blocked 2AT-evoked hyperalgesic priming”.
For the compound “2-aminothiazol-LIGRL-NH2 [2at-LIGRL-NH2, reference compound]”, the “cells showing Ca2+ signaling” value in assay [2] (agonist at 1.75 μM, percent of the cells within the experiment) was found to be 50%. For the same compound, the “paw withdrawal response (pain) induced by agonist” value at PAR2 [3] (2at injected into hindpaw, lower numbers indicative of pain) is “induced a rapid withdrawal response”. For the same compound, the “induction of MAPK phosphorylation” value in assay [4] (agonist at 600 nM, set as 100% response) is “induced significant phosphorylation of MAPK”.

Broadly, the IC50 is the concentration needed to halve the response being measured.
